Literature values in patent US20040241255A1, “Pharmaceutical composition containing valerina officinalis extract” (priority 2001, published 2004).

Test system: apnea during NREM sleep in rats
Conditions: injected intraperitoneally

SMILES | Suppression of apnea during NREM sleep
OC[C@H]1O[C@@H](n2cnc3c(N[C@H]4CCC[C@@H]4O)ncnc32)[C@H](O)[C@@H]1O (relative stereo) [N-[(1S,trans)-2-hydroxycyclopentyl]-adenosine] | dose-dependent suppression of apnea
CCNC(=O)C1OC(n2cnc3c(N)nc(NCCc4ccc(CCC(=O)O)cc4)nc32)C(O)C1O.Cl (stereo not drawn) [2-p-(2-carboxyethyl)-phenethyl-amino-5′-N-ethylcarboxamido-adenosine hydrochloride] | dose-dependent suppression of apnea
C[C@H](Cc1ccccc1)Nc1ncnc2c1ncn2[C@@H]1O[C@H](CO)[C@@H](O)[C@H]1O [phenylisopropyl adenosine] | dose-dependent suppression of apnea
